Test results: ChEMBL document CHEMBL1145472, “Genetic basis of resistance to fusidic acid in staphylococci” (2007)

Assays:
Assay type in all cases: functional
Staphylococcus aureus [1] = experiment: Antimicrobial activity against Staphylococcus aureus CS1128
Staphylococcus aureus [2] = experiment: Antimicrobial activity against Staphylococcus aureus CS805
Staphylococcus aureus [3] = experiment: Antimicrobial activity against Staphylococcus aureus CS860
Staphylococcus aureus [4] = experiment: Antimicrobial activity against Staphylococcus aureus CS1076
Staphylococcus aureus [5] = experiment: Antimicrobial activity against Staphylococcus aureus RN4220 expressing pCU1 gene
Staphylococcus aureus [6] = experiment: Antimicrobial activity against Staphylococcus aureus RN4220 expressing (pCU1:SAS0043) (fusC) gene
Staphylococcus aureus [7] = experiment: Antimicrobial activity against Staphylococcus aureus RN4220 expressing (pCU1:SSP2165) (fusD) gene
Staphylococcus aureus [8] = experiment: Antimicrobial activity against Staphylococcus aureus RN4220 expressing pAJ96
Staphylococcus aureus [9] = experiment: Antimicrobial activity against Staphylococcus aureus RN4220 expressing pAJ96:fusB
Staphylococcus aureus [10] = experiment: Antimicrobial activity against Staphylococcus aureus RN4220 expressing (pAJ96:SAS0043) (fusC) gene
Staphylococcus aureus [11] = experiment: Antimicrobial activity against Staphylococcus aureus RN4220
Staphylococcus aureus [12] = experiment: Antimicrobial activity against Staphylococcus aureus CS957
Staphylococcus aureus [13] = experiment: Antimicrobial activity against Staphylococcus aureus
Staphylococcus aureus [14] = experiment: Antimicrobial activity against methicillin-susceptible Staphylococcus aureus 476
Staphylococcus aureus [15] = experiment: Antimicrobial activity against Staphylococcus aureus 649 expressing pUB101
Staphylococcus aureus [16] = experiment: Antimicrobial activity against Staphylococcus aureus RN4220 expressing pCU1:fusB gene
Staphylococcus aureus [17] = experiment: Antimicrobial activity against Staphylococcus aureus CS992
Staphylococcus aureus [18] = experiment: Antimicrobial activity against Staphylococcus aureus CS730
Staphylococcus aureus [19] = experiment: Antimicrobial activity against Staphylococcus aureus CS808
Staphylococcus aureus [20] = experiment: Antimicrobial activity against Staphylococcus aureus CS866
Staphylococcus aureus [21] = experiment: Antimicrobial activity against Staphylococcus aureus CS602
Staphylococcus aureus [22] = experiment: Antimicrobial activity against Staphylococcus aureus CS851
Staphylococcus aureus [23] = experiment: Antimicrobial activity against Staphylococcus aureus CS979
Staphylococcus aureus [24] = experiment: Antimicrobial activity against Staphylococcus aureus CS1083
Staphylococcus aureus [25] = experiment: Antimicrobial activity against Staphylococcus aureus RN4220 expressing (pAJ96:SSP2165) (fusD) gene
[26] = test system: Staphylococcus intermedius; experiment: Antimicrobial activity against Staphylococcus intermedius CL1
[27] = test system: Staphylococcus intermedius; experiment: Antimicrobial activity against Staphylococcus intermedius CL2
[28] = test system: Staphylococcus intermedius; experiment: Antimicrobial activity against Staphylococcus intermedius NCTC 11048
[29] = test system: Staphylococcus lugdunensis; experiment: Antimicrobial activity against Staphylococcus lugdunensis 16641
[30] = test system: Staphylococcus lugdunensis; experiment: Antimicrobial activity against Staphylococcus lugdunensis 16496
[31] = test system: Staphylococcus lugdunensis; experiment: Antimicrobial activity against Staphylococcus lugdunensis 31440
[32] = test system: Staphylococcus lugdunensis; experiment: Antimicrobial activity against Staphylococcus lugdunensis 40869
[33] = test system: Staphylococcus saprophyticus; experiment: Antimicrobial activity against Staphylococcus saprophyticus ATCC 15305

Measured: MIC

CC(=O)O[C@H]1C[C@@]2(C)[C@@H](C[C@@H](O)[C@H]3[C@@]4(C)CC[C@@H](O)[C@@H](C)[C@@H]4CC[C@@]32C)/C1=C(\CCC=C(C)C)C(=O)O [FUSIDIC ACID]
2 µg/mL: Staphylococcus aureus [7] | Staphylococcus aureus [17] | [33]
32 µg/mL: Staphylococcus aureus [9]
0.064 µg/mL: [28] | [32]
8 µg/mL: Staphylococcus aureus [2] | Staphylococcus aureus [3] | Staphylococcus aureus [4] | Staphylococcus aureus [14]
3 µg/mL: Staphylococcus aureus [12] | Staphylococcus aureus [18] | Staphylococcus aureus [19] | Staphylococcus aureus [20]
16 µg/mL: Staphylococcus aureus [6] | Staphylococcus aureus [10] | Staphylococcus aureus [15] | Staphylococcus aureus [16]
0.125 µg/mL: Staphylococcus aureus [5] | Staphylococcus aureus [8] | Staphylococcus aureus [11]
4 µg/mL: all other assays above
